Experimental data taken from PubChem BioAssay AID1963853 (Molecular Pharmacology Branch, DTP, NCI, 2024).

Test system: 266295-075-R-J1-PDC spheroid viability
Assay: Anticancer human tumor 266295-075-R-J1-PDC patient-derived head and neck squamous carcinoma cell line growth inhibition [POLQ]
Details: spheroids with HUVEC and MSC; for IC50: curve of first compound; for viability, T/C: stronger effect = lower value
Summary of the method: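 Growth inhibition in 3D: complex spheroids (tumor PDC, HUVEC, MSC) treated with POLQ inhibitor combinations; where Cmax unknown, highest tested concentration 10 microM, except SN-38 at 1 microM.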

[1] = second compound 0.0316 µM, first compound 0.0316 µM
[2] = second compound 0.0316 µM, first compound 0.1 µM
[3] = second compound 0.0316 µM, first compound 0.316 µM
[4] = second compound 0.0316 µM, first compound 1 µM
[5] = second compound 0.0316 µM, first compound 3.16 µM
[6] = second compound 0.0316 µM, first compound 10 µM
[7] = second compound 0.1 µM, first compound 0.0316 µM
[8] = second compound 0.1 µM, first compound 0.1 µM
[9] = second compound 0.1 µM, first compound 0.316 µM
[10] = second compound 0.1 µM, first compound 1 µM
[11] = second compound 0.1 µM, first compound 3.16 µM
[12] = second compound 0.1 µM, first compound 10 µM
[13] = second compound 0.316 µM, first compound 0.0316 µM
[14] = second compound 0.316 µM, first compound 0.1 µM
[15] = second compound 0.316 µM, first compound 0.316 µM
[16] = second compound 0.316 µM, first compound 1 µM
[17] = second compound 0.316 µM, first compound 3.16 µM
[18] = second compound 0.316 µM, first compound 10 µM
[19] = second compound 1 µM, first compound 0.0316 µM
[20] = second compound 1 µM, first compound 0.1 µM
[21] = second compound 1 µM, first compound 0.316 µM
[22] = second compound 1 µM, first compound 1 µM
[23] = second compound 1 µM, first compound 3.16 µM
[24] = second compound 1 µM, first compound 10 µM
[25] = second compound 3.16 µM, first compound 0.0316 µM
[26] = second compound 3.16 µM, first compound 0.1 µM
[27] = second compound 3.16 µM, first compound 0.316 µM
[28] = second compound 3.16 µM, first compound 1 µM
[29] = second compound 3.16 µM, first compound 3.16 µM
[30] = second compound 3.16 µM, first compound 10 µM
[31] = second compound 10 µM, first compound 0.0316 µM
[32] = second compound 10 µM, first compound 0.1 µM
[33] = second compound 10 µM, first compound 0.316 µM
[34] = second compound 10 µM, first compound 1 µM
[35] = second compound 10 µM, first compound 3.16 µM
[36] = second compound 10 µM, first compound 10 µM
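Also: spheroids exposed to compounds for seven days before readout.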

## CNCc1ccc(-c2[nH]c3cc(F)cc4c3c2CCNC4=O)cc1 + Cc1cccc(N(C)C(=O)C2C(O)CCN2c2nc(C)cc(C(F)(F)F)c2C#N)c1
Second compound 0.0316 µM
  IC50: > 10 µM
Second compound 0.1 µM
  IC50: > 10 µM
Second compound 0.316 µM
  IC50: > 10 µM
Second compound 1 µM
  IC50: > 10 µM
Second compound 3.16 µM
  IC50: > 10 µM
Second compound 10 µM
  IC50: > 10 µM
[1]
  viability, T/C: 87.1%
[2]
  viability, T/C: 117%
[3]
  viability, T/C: 87.5%
[4]
  viability, T/C: 105%
[5]
  viability, T/C: 107%
[6]
  viability, T/C: 102%
[7]
  viability, T/C: 95.4%
[8]
  viability, T/C: 99.8%
[9]
  viability, T/C: 88.2%
[10]
  viability, T/C: 84.2%
[11]
  viability, T/C: 126%
[12]
  viability, T/C: 128%
[13]
  viability, T/C: 104%
[14]
  viability, T/C: 111%
[15]
  viability, T/C: 104%
[16]
  viability, T/C: 99.1%
[17]
  viability, T/C: 98.3%
[18]
  viability, T/C: 112%
[19]
  viability, T/C: 102%
[20]
  viability, T/C: 102%
[21]
  viability, T/C: 99.9%
[22]
  viability, T/C: 93.6%
[23]
  viability, T/C: 110%
[24]
  viability, T/C: 123%
[25]
  viability, T/C: 105%
[26]
  viability, T/C: 88.7%
[27]
  viability, T/C: 101%
[28]
  viability, T/C: 102%
[29]
  viability, T/C: 112%
[30]
  viability, T/C: 115%
[31]
  viability, T/C: 90.1%
[32]
  viability, T/C: 115%
[33]
  viability, T/C: 113%
[34]
  viability, T/C: 126%
[35]
  viability, T/C: 107%
[36]
  viability, T/C: 106%

## Nc1ccn(C2OC(CO)C(O)C2(F)F)c(=O)n1 (stereo not given) + COC1C(OC(N)=O)C(O)C(Oc2ccc3c(O)c(NC(=O)c4ccc(O)c(CC=C(C)C)c4)c(=O)oc3c2C)OC1(C)C
Second compound 0.0316 µM
  IC50: > 10 µM
Second compound 0.1 µM
  IC50: > 10 µM
Second compound 0.316 µM
  IC50: > 10 µM
Second compound 1 µM
  IC50: > 10 µM
Second compound 3.16 µM
  IC50: > 10 µM
Second compound 10 µM
  IC50: > 10 µM
[1]
  viability, T/C: 109%
[2]
  viability, T/C: 82%
[3]
  viability, T/C: 77.3%
[4]
  viability, T/C: 101%
[5]
  viability, T/C: 81.3%
[6]
  viability, T/C: 77.9%
[7]
  viability, T/C: 107%
[8]
  viability, T/C: 91.9%
[9]
  viability, T/C: 82.6%
[10]
  viability, T/C: 84%
[11]
  viability, T/C: 91.1%
[12]
  viability, T/C: 75.2%
[13]
  viability, T/C: 100%
[14]
  viability, T/C: 85.9%
[15]
  viability, T/C: 90.8%
[16]
  viability, T/C: 82.4%
[17]
  viability, T/C: 78.7%
[18]
  viability, T/C: 77.1%
[19]
  viability, T/C: 104%
[20]
  viability, T/C: 78.1%
[21]
  viability, T/C: 87%
[22]
  viability, T/C: 84.5%
[23]
  viability, T/C: 93.6%
[24]
  viability, T/C: 87.4%
[25]
  viability, T/C: 105%
[26]
  viability, T/C: 102%
[27]
  viability, T/C: 89.6%
[28]
  viability, T/C: 81.8%
[29]
  viability, T/C: 85.3%
[30]
  viability, T/C: 83.2%
[31]
  viability, T/C: 109%
[32]
  viability, T/C: 87.2%
[33]
  viability, T/C: 84.6%
[34]
  viability, T/C: 97.6%
[35]
  viability, T/C: 82.3%
[36]
  viability, T/C: 84.9%

## CC(C)n1c(=O)n(C)c2cnc3cc(F)c(-c4ccc(OCCCN5CCCCC5)nc4)cc3c21 + COC1C(OC(N)=O)C(O)C(Oc2ccc3c(O)c(NC(=O)c4ccc(O)c(CC=C(C)C)c4)c(=O)oc3c2C)OC1(C)C
Second compound 0.0316 µM
  IC50: > 10 µM
Second compound 0.1 µM
  IC50: > 10 µM
Second compound 0.316 µM
  IC50: > 10 µM
Second compound 1 µM
  IC50: > 10 µM
Second compound 3.16 µM
  IC50: > 10 µM
Second compound 10 µM
  IC50: > 10 µM
[1]
  viability, T/C: 102%
[2]
  viability, T/C: 86.7%
[3]
  viability, T/C: 97.2%
[4]
  viability, T/C: 93.8%
[5]
  viability, T/C: 83%
[6]
  viability, T/C: 72.2%
[7]
  viability, T/C: 105%
[8]
  viability, T/C: 95.5%
[9]
  viability, T/C: 90.3%
[10]
  viability, T/C: 96.5%
[11]
  viability, T/C: 82.8%
[12]
  viability, T/C: 74.5%
[13]
  viability, T/C: 103%
[14]
  viability, T/C: 114%
[15]
  viability, T/C: 90.7%
[16]
  viability, T/C: 100%
[17]
  viability, T/C: 93.9%
[18]
  viability, T/C: 57.2%
[19]
  viability, T/C: 121%
[20]
  viability, T/C: 99.5%
[21]
  viability, T/C: 91.8%
[22]
  viability, T/C: 86.3%
[23]
  viability, T/C: 74.8%
[24]
  viability, T/C: 77.7%
[25]
  viability, T/C: 92.8%
[26]
  viability, T/C: 85.2%
[27]
  viability, T/C: 101%
[28]
  viability, T/C: 78.9%
[29]
  viability, T/C: 74.9%
[30]
  viability, T/C: 66.2%
[31]
  viability, T/C: 124%
[32]
  viability, T/C: 88.4%
[33]
  viability, T/C: 78.3%
[34]
  viability, T/C: 78.5%
[35]
  viability, T/C: 83.3%
[36]
  viability, T/C: 66.3%

## CC1COCCN1c1cc(C2(S(C)(=N)=O)CC2)nc(-c2ccnc3[nH]ccc23)n1 (stereo not given) + Cc1cccc(N(C)C(=O)C2C(O)CCN2c2nc(C)cc(C(F)(F)F)c2C#N)c1
Second compound 0.0316 µM
  IC50: > 10 µM
Second compound 0.1 µM
  IC50: > 10 µM
Second compound 0.316 µM
  IC50: > 10 µM
Second compound 1 µM
  IC50: 9.31 µM
Second compound 3.16 µM
  IC50: > 10 µM
Second compound 10 µM
  IC50: > 10 µM
[1]
  viability, T/C: 101%
[2]
  viability, T/C: 83.2%
[3]
  viability, T/C: 87%
[4]
  viability, T/C: 79.8%
[5]
  viability, T/C: 81.3%
[6]
  viability, T/C: 57%
[7]
  viability, T/C: 95.2%
[8]
  viability, T/C: 83.5%
[9]
  viability, T/C: 79.3%
[10]
  viability, T/C: 86.8%
[11]
  viability, T/C: 72.1%
[12]
  viability, T/C: 55.1%
[13]
  viability, T/C: 89.8%
[14]
  viability, T/C: 98.6%
[15]
  viability, T/C: 111%
[16]
  viability, T/C: 81.4%
[17]
  viability, T/C: 75.8%
[18]
  viability, T/C: 56.7%
[19]
  viability, T/C: 94.4%
[20]
  viability, T/C: 100%
[21]
  viability, T/C: 96.8%
[22]
  viability, T/C: 82.5%
[23]
  viability, T/C: 69.8%
[24]
  viability, T/C: 48.5%
[25]
  viability, T/C: 103%
[26]
  viability, T/C: 93.6%
[27]
  viability, T/C: 81.4%
[28]
  viability, T/C: 89.3%
[29]
  viability, T/C: 72.5%
[30]
  viability, T/C: 55.2%
[31]
  viability, T/C: 92.8%
[32]
  viability, T/C: 98.1%
[33]
  viability, T/C: 97.1%
[34]
  viability, T/C: 94.3%
[35]
  viability, T/C: 74.2%
[36]
  viability, T/C: 56.2%

## Cn1ncnc1[C@H]1c2n[nH]c(=O)c3cc(F)cc(c23)N[C@@H]1c1ccc(F)cc1 + Cc1cccc(N(C)C(=O)C2C(O)CCN2c2nc(C)cc(C(F)(F)F)c2C#N)c1
Second compound 0.0316 µM
  IC50: > 0.1 µM
Second compound 0.1 µM
  IC50: > 0.1 µM
Second compound 0.316 µM
  IC50: > 0.1 µM
Second compound 1 µM
  IC50: > 0.1 µM
Second compound 3.16 µM
  IC50: > 0.1 µM
Second compound 10 µM
  IC50: > 0.1 µM
Second compound 0.0316 µM, first compound 0.000316 µM
  viability, T/C: 88.2%
Second compound 0.0316 µM, first compound 0.001 µM
  viability, T/C: 93.7%
Second compound 0.0316 µM, first compound 0.00316 µM
  viability, T/C: 84.3%
Second compound 0.0316 µM, first compound 0.01 µM
  viability, T/C: 109%
[1]
  viability, T/C: 100%
[2]
  viability, T/C: 96.5%
Second compound 0.1 µM, first compound 0.000316 µM
  viability, T/C: 99.4%
Second compound 0.1 µM, first compound 0.001 µM
  viability, T/C: 104%
Second compound 0.1 µM, first compound 0.00316 µM
  viability, T/C: 85.4%
Second compound 0.1 µM, first compound 0.01 µM
  viability, T/C: 115%
[7]
  viability, T/C: 90%
[8]
  viability, T/C: 87.9%
Second compound 0.316 µM, first compound 0.000316 µM
  viability, T/C: 108%
Second compound 0.316 µM, first compound 0.001 µM
  viability, T/C: 99.2%
Second compound 0.316 µM, first compound 0.00316 µM
  viability, T/C: 99.1%
Second compound 0.316 µM, first compound 0.01 µM
  viability, T/C: 104%
[13]
  viability, T/C: 95.7%
[14]
  viability, T/C: 99.7%
Second compound 1 µM, first compound 0.000316 µM
  viability, T/C: 103%
Second compound 1 µM, first compound 0.001 µM
  viability, T/C: 122%
Second compound 1 µM, first compound 0.00316 µM
  viability, T/C: 89%
Second compound 1 µM, first compound 0.01 µM
  viability, T/C: 97.1%
[19]
  viability, T/C: 113%
[20]
  viability, T/C: 75.8%
Second compound 3.16 µM, first compound 0.000316 µM
  viability, T/C: 94.1%
Second compound 3.16 µM, first compound 0.001 µM
  viability, T/C: 96.7%
Second compound 3.16 µM, first compound 0.00316 µM
  viability, T/C: 85.2%
Second compound 3.16 µM, first compound 0.01 µM
  viability, T/C: 118%
[25]
  viability, T/C: 104%
[26]
  viability, T/C: 104%
Second compound 10 µM, first compound 0.000316 µM
  viability, T/C: 119%
Second compound 10 µM, first compound 0.001 µM
  viability, T/C: 104%
Second compound 10 µM, first compound 0.00316 µM
  viability, T/C: 101%
Second compound 10 µM, first compound 0.01 µM
  viability, T/C: 105%
[31]
  viability, T/C: 109%
[32]
  viability, T/C: 114%
